For this assay, the target named is CDK2 (UniProt P24941). Kind of assay: Enzyme Assay.

IC50 data for 1 compound are collected here from the Kinase Knowledgebase extract (Sharma et al. 2016).

In general, IC50 refers to the concentration that gives 50% inhibition. Lower therefore signals greater potency.

With `COc1ccc(CNc2nc(NCCCNC(=O)[C@H]3CSC(=O)N3)nc3c2ncn3C(C)C)cc1`, the IC50 is 2 µM.
